The values that follow are results of earlier work, collected in patent US20190202814A1, “PROCESSES FOR PREPARATION OF EMPAGLIFLOZIN” (CADILA HEALTHCARE LIMITED, priority 2015, published 2019).

The conditions of series [1]: crystalline solid.

Consider `OC[C@H]1O[C@@H](c2ccc(Cl)c(Cc3ccc(O[C@H]4CCOC4)cc3)c2)[C@H](O)[C@@H](O)[C@@H]1O` [Empagliflozin, (1S)-1,5-anhydro-1-{4-chloro-3-(4-[(3S)-tetrahydrofuran-3-yloxy]benzyl}phenyl)-D-glucitol], for which, in series [1], the hygroscopicity entry was “non-hygroscopic”. Besides, the solubility in acetonitrile result (acetonitrile) is “very slightly soluble”. In addition, where the note is “ethanol”, the solubility in ethanol result is given as “very slightly soluble”. Also, for the setting “methanol”, the solubility in methanol entry is reported as “sparingly soluble”. In addition, the solubility in toluene entry (toluene) is on record as “practically insoluble”. Under “water”, the solubility in water entry is listed as “very slightly soluble”.
